{
  "source": "patent US7250441B2",
  "about": "“Carbazole and cyclopentaindole derivatives to treat infection with Hepatitis C virus” (priority 2004, dated 2007)",
  "target": "T1, HCV RdRp NS5B d21BK (NS5B from the BK strain, genotype 1b) (Hepatitis C virus genotype 1b, UniProt P26663)",
  "T1 construct": "NS5B from the BK strain (genotype 1b) is expressed in E coli as a protein in which the 21 C-terminal amino acids are replaced; made in house; host or cells: E. coli",
  "T1 sequence (P26663 2420-2989)": "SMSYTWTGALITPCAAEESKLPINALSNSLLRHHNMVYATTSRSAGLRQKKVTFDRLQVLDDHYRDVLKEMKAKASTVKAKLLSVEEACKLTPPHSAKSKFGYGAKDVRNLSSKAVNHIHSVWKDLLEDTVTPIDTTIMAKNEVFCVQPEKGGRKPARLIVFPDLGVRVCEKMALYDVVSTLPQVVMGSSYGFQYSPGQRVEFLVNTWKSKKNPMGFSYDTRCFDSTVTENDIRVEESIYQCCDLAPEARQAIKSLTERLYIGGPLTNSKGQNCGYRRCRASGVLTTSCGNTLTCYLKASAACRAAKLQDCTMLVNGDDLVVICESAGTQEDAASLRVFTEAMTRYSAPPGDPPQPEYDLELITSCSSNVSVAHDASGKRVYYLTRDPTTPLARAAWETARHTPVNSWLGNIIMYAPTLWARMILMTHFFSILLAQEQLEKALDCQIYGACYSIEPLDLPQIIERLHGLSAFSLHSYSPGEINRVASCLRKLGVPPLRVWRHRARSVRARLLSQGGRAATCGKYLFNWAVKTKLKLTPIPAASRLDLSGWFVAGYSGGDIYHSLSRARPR",
  "experiment": "Hepatitis C polymerase inhibition assay, radioactive nucleotide incorporation with filter capture",
  "type": "biochemical",
  "text": "The ability of the compounds of formula (I) to inhibit Hepatitis C Polymerase was established by the following experimental procedure.\nNS5B from the BK strain (genotype 1b) is expressed in E coli as a protein in which the 21 C-terminal amino acids are replaced with a short linker and a hexahistidine tag ([…]). The purified protein is mixed with radioactive nucleotides and allowed to replicate a heteropolymeric RNA substrate, primed by an endogenous short hairpin, resulting in an approximately 760 nt product. The radioactive product is captured on a filter and quantitated after removal of the unincorporated nucleotides.\n(1) Compounds 10 μl at 10 μg/ml in 15% dimethylsulfoxide (DMSO)\nWhen starting from 100 μg/ml compound stock in 1% DMSO, 5 μl 30% DMSO is dispensed per well. Next, 5 μl compound (100 μg/ml) is dispensed per well.\nWhen starting from 50 μg/ml compound stock in 15% DMSO, 10 μl compound is added per well.\n20 μl enzyme mix is added into each well of the assay plate. The compound and enzyme are incubated at room temperature for 15 minutes.\n(3) Template mix (prepared in advance)\nA tube of RNA (5 μg/tube stored in 75% ethanol and 0.3 M sodium acetate) is microcentrifuged for 20 minutes at 4° C. (one tube supplies 1-1.5 plates). Ethanol is removed from the tube by gently inverting the tube. The RNA is vacuum dried and re-suspended in 1 ml of DEPC water in a tightly capped tube. To dissolve RNA, the RNA solution is incubated on ice for ˜60 minutes and gently vortexed. It is spun briefly to ensure all RNA solution at the bottom of the tube before opening cap. The RNA solution is then gently transferred into a 5 ml or larger tube. Another 3 ml of DEPC water is added to obtain a total of 4 ml of volume.\nThe following volumes of reagents are added:\n20 μl template mix per reaction is added (i.e. 20 ng of pOF per reaction or ˜3 nM)\n(4) The reaction is incubated at room temperature (22-25° C.) for 2 hours.\n(5) The reaction is quenched by adding 50 μl of 170 mM EDTA.\nFinal concentration of EDTA is 85 mM.\n(6) The filters of Millipore multiscreen assay plate is pre-wet by adding 200 μl of 0.5 M sodium phosphate buffer, pH 7.0 into each well. This stands at room temperature for 2-3 minutes.\n(7) The multiscreen filter plate is placed onto a Millipore Manifold under vacuum to allow buffer to flow through. After the vacuum is turned off, 80 μl of the reaction product is transferred into each well of the filter plate. This stands for 2-3 minutes prior to turning on the vacuum again to filter the reaction product.\n(8) The vacuum is then removed. 200 μl of 0.5 M sodium phosphate buffer is added, pH 7.0, into each well. The vacuum is then turned on.\nStep (8) is repeated three more times.\n(9) Next the polypropylene bottom is removed, and the filter is spot dried with a paper towel. The filter plate is air-dried on a bench for 1 hour before adding 40 μl Super Mix scintillant. The top of the plate is sealed with a tape and the plate is placed into a Packard carrier or micro-beta carrier.\n(10) The plate is counted using a Packard Topcount or micro-beta counter. Count (for example using Program 10) for ^33P in Top count or ^33P program in micro-beta.\nThe percent inhibition is calculated after background subtraction as a percent reduction of activity relative to the positive control (average value of the plate excluding the negative controls). For the primary screen hits were chosen as showing >75% inhibition.\nSee, Ferrari et al. 1999. J. Virology 73:1649-1654: “Characterization of soluble Hepatitis C virus RNA-dependent RNA polymerase expressed in E. coli and Takamizawa et al 1991” and J. Virology 65:1105-1113: “Structure and characterization of Hepatitis C virus genome isolated from human carriers,” both reference are hereby incorporated by reference.",
  "data": [
    {"smiles": "CCCC1(CC(=O)O)CCCc2c1[nH]c1c(C(N)=O)ccc(C#N)c21", "note": "(stereo not shown) [Example 33, (8-Carbamoyl-5-cyano-1-propyl-2,3,4,9-tetrahydro-1H-carbazol-1-yl)-acetic acid]", "values": [
      {"measurement": "IC50", "result": 5.9, "unit": "µM"}
    ]},
    {"smiles": "C=CCC1(CC(=O)O)CCCc2c1[nH]c1c(C#N)ccc(C#N)c21", "note": "(stereo not shown) [Example 34, (1-Allyl-5,8-dicyano-2,3,4,9-tetrahydro-1H-carbazol-1-yl)-acetic acid]", "values": [
      {"measurement": "IC50", "result": 3.4, "unit": "µM"}
    ]},
    {"smiles": "CCCC1(CC(=O)O)CCCc2c1[nH]c1c(C#N)ccc(C#N)c21", "note": "(stereo not shown) [Example 35, (5,8-Dicyano-1-propyl-2,3,4,9-tetrahydro-1H-carbazol-1-yl)-acetic acid]", "values": [
      {"measurement": "IC50", "result": 3.4, "unit": "µM"}
    ]},
    {"smiles": "CCCC1(CC(=O)O)CCCc2c1[nH]c1cccc(C#N)c21", "note": "(stereo not shown) [Example 36, (5-Cyano-1-propyl-2,3,4,9-tetrahydro-1H-carbazol-1-yl)-acetic acid]", "values": [
      {"measurement": "IC50", "result": 9.5, "unit": "µM"}
    ]}
  ]
}
